Laboratory results taken from ChEMBL document CHEMBL3885881, “DrugMatrix”.

Species on record: Rattus norvegicus
Experiment: DrugMatrix - Regimen: Daily Repeat
Type: toxicity, organism-based, Sprague-Dawley
Parameters: regimen Daily Repeat, gender Male, age 6-8 weeks
Details: in vivo, po, route oral GAVAGE, vehicle 100 % SALINE; for ABSOLUTE EOSINOPHIL / ABSOLUTE LYMPHOCYTE / ABSOLUTE MONOCYTE / ABSOLUTE SEGMENTED NEUTROPHIL / BASOPHIL / EOSINOPHIL / ERYTHROCYTE COUNT / HEMATOCRIT / HEMOGLOBIN / LEUKOCYTE COUNT / LYMPHOCYTE / MEAN CORPUSCULAR HEMOGLOBIN / MEAN CORPUSCULAR HEMOGLOBIN CONCENTRATION / MEAN CORPUSCULAR VOLUME / MONOCYTE / NEUTROPHIL / NUCLEATED RED BLOOD CELLS / PLATELET COUNT / ABSOLUTE BASOPHIL: tissue Blood; for ALANINE AMINOTRANSFERASE / ALBUMIN / ALKALINE PHOSPHATASE / ASPARTATE AMINOTRANSFERASE / BLOOD UREA NITROGEN / CARBON DIOXIDE / CHLORIDE / CHOLESTEROL / CREATINE PHOSPHOKINASE / CREATININE / GLUCOSE / LACTATE DEHYDROGENASE / LIPASE / PHOSPHORUS / POTASSIUM / SODIUM / TOTAL BILIRUBIN / TOTAL PROTEIN / URIC ACID: tissue Plasma
[1] = 29 mg/kg, 120 h, dose level Low, time 5 day
[2] = 200 mg/kg, 72 h, dose level High, time 3 day
[3] = 200 mg/kg, 120 h, dose level High, time 5 day

## Cc1ccnc2c1NC(=O)c1cccnc1N2C1CC1 [NEVIRAPINE]
[1]
  ABSOLUTE EOSINOPHIL: 0 CELLS/uL
  ABSOLUTE LYMPHOCYTE: 5766.33 CELLS/uL
  ABSOLUTE MONOCYTE: 26.67 CELLS/uL
  ABSOLUTE SEGMENTED NEUTROPHIL: 340.33 CELLS/uL
  BASOPHIL: 0%
  EOSINOPHIL: 0%
  ERYTHROCYTE COUNT: 5.58 x10E6/uL
  HEMATOCRIT: 33.7%
  HEMOGLOBIN: 13.2 G/DL
  LEUKOCYTE COUNT: 6.13 x10E3/uL
  LYMPHOCYTE: 94.33%
  MEAN CORPUSCULAR HEMOGLOBIN: 23.7 pg
  MEAN CORPUSCULAR HEMOGLOBIN CONCENTRATION: 39.2 G/DL
  MEAN CORPUSCULAR VOLUME: 60.4 fL
  MONOCYTE: 0.33%
  NEUTROPHIL: 5.33%
  NUCLEATED RED BLOOD CELLS: 0 /100WBC
  PLATELET COUNT: 1219 x10E3/uL
  ALANINE AMINOTRANSFERASE: 55.67 u/L
  ALBUMIN: 4.23 G/DL
  ALKALINE PHOSPHATASE: 280.33 u/L
  ASPARTATE AMINOTRANSFERASE: 82.33 u/L
  BLOOD UREA NITROGEN: 15.33 mg/dL
  CARBON DIOXIDE: 34.33 mmol/L
  CHLORIDE: 98.67 MEQ/L
  CHOLESTEROL: 74.33 mg/dL
  CREATINE PHOSPHOKINASE: 403.67 u/L
  CREATININE: 0.39 mg/dL
  GLUCOSE: 132.33 mg/dL
  LACTATE DEHYDROGENASE: 98.67 u/L
  LIPASE: 11 u/L
  PHOSPHORUS: 10.8 mg/dL
  POTASSIUM: 6.38 MEQ/L
  SODIUM: 144.43 MEQ/L
  TOTAL BILIRUBIN: 0.17 mg/dL
  TOTAL PROTEIN: 5.7 G/DL
  URIC ACID: 0.87 mg/dL
[2]
  ABSOLUTE BASOPHIL: 0 CELLS/uL
  ABSOLUTE EOSINOPHIL: 0 CELLS/uL
  ABSOLUTE LYMPHOCYTE: 4383.33 CELLS/uL
  ABSOLUTE MONOCYTE: 11.67 CELLS/uL
  ABSOLUTE SEGMENTED NEUTROPHIL: 905 CELLS/uL
  BASOPHIL: 0%
  EOSINOPHIL: 0%
  ERYTHROCYTE COUNT: 5.28 x10E6/uL
  HEMATOCRIT: 32.53%
  HEMOGLOBIN: 12.53 G/DL
  LEUKOCYTE COUNT: 5.3 x10E3/uL
  LYMPHOCYTE: 83%
  MEAN CORPUSCULAR HEMOGLOBIN: 23.9 pg
  MEAN CORPUSCULAR HEMOGLOBIN CONCENTRATION: 38.7 G/DL
  MEAN CORPUSCULAR VOLUME: 61.8 fL
  MONOCYTE: 0.33%
  NEUTROPHIL: 16.67%
  NUCLEATED RED BLOOD CELLS: 0.67 /100WBC
  PLATELET COUNT: 1104 x10E3/uL
  ALANINE AMINOTRANSFERASE: 63 u/L
  ALBUMIN: 4.4 G/DL
  ALKALINE PHOSPHATASE: 260.67 u/L
  ASPARTATE AMINOTRANSFERASE: 84.67 u/L
  BLOOD UREA NITROGEN: 16.33 mg/dL
  CARBON DIOXIDE: 27.67 mmol/L
  CHLORIDE: 101.67 MEQ/L
  CHOLESTEROL: 85.33 mg/dL
  CREATINE PHOSPHOKINASE: 227 u/L
  CREATININE: 0.11 mg/dL
  GLUCOSE: 145 mg/dL
  LACTATE DEHYDROGENASE: 139.67 u/L
  LIPASE: 12.33 u/L
  PHOSPHORUS: 10.8 mg/dL
  POTASSIUM: 5.63 MEQ/L
  SODIUM: 147 MEQ/L
  TOTAL BILIRUBIN: 0.13 mg/dL
  TOTAL PROTEIN: 5.9 G/DL
  URIC ACID: 1.03 mg/dL
[3]
  ABSOLUTE BASOPHIL: 0 CELLS/uL
  ABSOLUTE EOSINOPHIL: 0 CELLS/uL
  ABSOLUTE LYMPHOCYTE: 5735 CELLS/uL
  ABSOLUTE MONOCYTE: 88 CELLS/uL
  ABSOLUTE SEGMENTED NEUTROPHIL: 443.67 CELLS/uL
  BASOPHIL: 0%
  EOSINOPHIL: 0%
  ERYTHROCYTE COUNT: 5.22 x10E6/uL
  HEMATOCRIT: 33.87%
  HEMOGLOBIN: 13.47 G/DL
  LEUKOCYTE COUNT: 6.27 x10E3/uL
  LYMPHOCYTE: 91.67%
  MEAN CORPUSCULAR HEMOGLOBIN: 25.83 pg
  MEAN CORPUSCULAR HEMOGLOBIN CONCENTRATION: 39.8 G/DL
  MEAN CORPUSCULAR VOLUME: 64.77 fL
  MONOCYTE: 1.33%
  NEUTROPHIL: 7%
  NUCLEATED RED BLOOD CELLS: 0.67 /100WBC
  PLATELET COUNT: 1370.67 x10E3/uL
  ALANINE AMINOTRANSFERASE: 55.67 u/L
  ALBUMIN: 4.03 G/DL
  ALKALINE PHOSPHATASE: 286 u/L
  ASPARTATE AMINOTRANSFERASE: 87 u/L
  BLOOD UREA NITROGEN: 13 mg/dL
  CARBON DIOXIDE: 33.67 mmol/L
  CHLORIDE: 99 MEQ/L
  CHOLESTEROL: 89.33 mg/dL
  CREATINE PHOSPHOKINASE: 578.67 u/L
  CREATININE: 0.38 mg/dL
  GLUCOSE: 136 mg/dL
  LACTATE DEHYDROGENASE: 142 u/L
  LIPASE: 10.33 u/L
  PHOSPHORUS: 10.57 mg/dL
  POTASSIUM: 6.07 MEQ/L
  SODIUM: 146.23 MEQ/L
  TOTAL BILIRUBIN: 0.13 mg/dL
  TOTAL PROTEIN: 6.13 G/DL
  URIC ACID: 0.63 mg/dL
